Experimental data published in patent publication US10004732B2 (Novartis AG, priority 2014, dated 2018).
Structures can show the parent of a compound that is named as a salt.

Key:
PI 3-kinase alpha [1] = target: T1, PI 3-kinase alpha (Homo sapiens, UniProt P42336); test: Kinase Glo Luminescent Kinase Assay (Kglo), assay A; assay type: biochemical; settings: read-out: Assay A PI3Kα IC50
Target sequence in this assay (P42336 whole entry): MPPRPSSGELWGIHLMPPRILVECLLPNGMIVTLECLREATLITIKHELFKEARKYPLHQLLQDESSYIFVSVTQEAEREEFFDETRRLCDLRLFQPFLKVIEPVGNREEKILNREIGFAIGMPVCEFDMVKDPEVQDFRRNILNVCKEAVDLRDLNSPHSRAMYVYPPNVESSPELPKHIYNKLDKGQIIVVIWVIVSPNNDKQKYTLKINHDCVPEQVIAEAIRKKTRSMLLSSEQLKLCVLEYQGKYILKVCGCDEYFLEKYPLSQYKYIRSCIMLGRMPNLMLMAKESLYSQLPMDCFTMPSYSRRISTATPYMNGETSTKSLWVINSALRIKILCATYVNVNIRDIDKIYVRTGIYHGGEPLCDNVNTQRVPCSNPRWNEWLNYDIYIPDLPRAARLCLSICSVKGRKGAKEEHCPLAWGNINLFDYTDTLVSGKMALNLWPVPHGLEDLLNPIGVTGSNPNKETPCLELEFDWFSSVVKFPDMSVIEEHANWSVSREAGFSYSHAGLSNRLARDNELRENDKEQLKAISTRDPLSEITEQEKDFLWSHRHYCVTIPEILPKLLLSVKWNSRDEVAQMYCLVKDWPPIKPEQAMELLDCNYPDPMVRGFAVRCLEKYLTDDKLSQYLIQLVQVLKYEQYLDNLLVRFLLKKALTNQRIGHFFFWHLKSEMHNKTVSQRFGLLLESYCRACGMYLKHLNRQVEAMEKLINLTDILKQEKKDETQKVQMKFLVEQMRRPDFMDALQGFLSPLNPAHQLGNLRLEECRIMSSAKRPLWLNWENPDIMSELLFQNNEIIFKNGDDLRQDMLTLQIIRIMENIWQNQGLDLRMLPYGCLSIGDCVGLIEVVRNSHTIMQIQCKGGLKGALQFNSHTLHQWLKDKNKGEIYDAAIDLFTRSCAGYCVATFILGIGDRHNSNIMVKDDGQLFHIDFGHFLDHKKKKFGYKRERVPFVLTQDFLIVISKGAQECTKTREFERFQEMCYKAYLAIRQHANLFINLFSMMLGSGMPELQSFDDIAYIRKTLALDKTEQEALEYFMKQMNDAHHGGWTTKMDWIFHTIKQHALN

PI 3-kinase alpha [2] = target: T1, PI 3-kinase alpha; test: Cellular assay H1, p-Akt (S473) in Rat-1 cells, Surefire format; assay type: cell-based; settings: non-asterisked data: version H1 (Surefire format), Rat-1 cells; read-out: Assay H PI3Kα IC50
Target sequence in this assay (P42336 whole entry): as above
Target sequence in this assay (Q63787 whole entry partner): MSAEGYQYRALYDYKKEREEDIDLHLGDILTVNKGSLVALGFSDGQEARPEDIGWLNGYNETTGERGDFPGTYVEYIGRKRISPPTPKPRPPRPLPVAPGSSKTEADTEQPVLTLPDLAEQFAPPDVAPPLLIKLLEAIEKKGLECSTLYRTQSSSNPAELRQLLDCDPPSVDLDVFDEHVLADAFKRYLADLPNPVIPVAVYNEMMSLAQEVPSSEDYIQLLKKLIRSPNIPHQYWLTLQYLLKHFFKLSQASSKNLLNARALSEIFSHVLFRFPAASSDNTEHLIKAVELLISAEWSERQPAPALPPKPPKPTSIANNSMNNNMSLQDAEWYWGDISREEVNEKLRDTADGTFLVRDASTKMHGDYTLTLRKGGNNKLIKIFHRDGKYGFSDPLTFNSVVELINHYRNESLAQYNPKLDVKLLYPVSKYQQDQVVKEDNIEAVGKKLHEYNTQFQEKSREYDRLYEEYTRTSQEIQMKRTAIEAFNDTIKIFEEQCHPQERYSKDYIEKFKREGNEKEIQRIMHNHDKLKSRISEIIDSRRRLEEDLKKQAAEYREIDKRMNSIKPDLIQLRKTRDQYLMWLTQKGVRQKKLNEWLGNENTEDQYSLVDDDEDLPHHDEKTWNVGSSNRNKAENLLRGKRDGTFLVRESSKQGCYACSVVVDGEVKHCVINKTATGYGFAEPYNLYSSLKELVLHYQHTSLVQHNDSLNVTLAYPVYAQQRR
From the text: Cellular Assays for PI 3-Kinase Alpha (H1), Beta (I1) and Delta (J1): Surefire Format
AlphaScreen (Amplified Luminescent Proximity Homogeneous Assay, ALPHA, Perkin Elmer) is a non-radioactive bead-based proximity assay technology to study biomolecular interactions in a homogenous microtiter plate format. The brand name SureFire denotes AlphaScreen assays that are adapted to quantify the phosphorylation of endogenous cellular proteins in cell lysates, by using matched antibody pairs, which consist of an anti-phospho-kinase and an anti-kinase antibody. The assay allows characterization of kinase signaling in cells as well as measurement of kinase inhibitor effects.
Using Rat-1 cells stably expressing myr-HA-tagged versions of the human PI3Kdelta, PI3Kalpha, or PI3Kbeta p110 catalytic subunit isoforms, the assay was developed as a two-plate protocol in a 384-well format.
For compound testing, the cells were seeded at a density of 4000 (Rat-1_PI3Kdelta), 7500 (Rat-1_PI3Kalpha), or 6200 (Rat-1_PI3Kbeta) cells in 20 μl complete growth medium into cell culture treated 384-well plates and were grown at 37° C./5% CO2/90% humidity for 24 h. Shortly before compound transfer, the complete medium was removed, 30 μl assay buffer (DMEM high glucose, 1×MEM NEAA, 10 mM HEPES, 2 mM L-glutamine, 0.1% (w/v) BSA) was added and 10 μl of the compound predilutions were transferred to the cells.

PI 4-kinase beta = PI 4-kinase beta (Homo sapiens, UniProt Q9UBF8); test: Kinase Glo Luminescent Kinase Assay (Kglo), assay D; assay type: biochemical; settings: read-out: Assay D PI4Kβ IC50
PI 3-kinase beta [3] = target: T2, PI 3-kinase beta (Homo sapiens, UniProt P42338); test: Cellular assay I1, p-Akt (S473) in Rat-1 cells, Surefire format; assay type: cell-based; settings: non-asterisked data: version I1 (Surefire format), Rat-1 cells; read-out: Assay I PI3Kβ IC50
PI 3-kinase delta [4] = target: T3, PI 3-kinase delta (Homo sapiens, UniProt O00329); test: TR-FRET Adapta assay, assay F
Target sequence in this assay (O00329 whole entry): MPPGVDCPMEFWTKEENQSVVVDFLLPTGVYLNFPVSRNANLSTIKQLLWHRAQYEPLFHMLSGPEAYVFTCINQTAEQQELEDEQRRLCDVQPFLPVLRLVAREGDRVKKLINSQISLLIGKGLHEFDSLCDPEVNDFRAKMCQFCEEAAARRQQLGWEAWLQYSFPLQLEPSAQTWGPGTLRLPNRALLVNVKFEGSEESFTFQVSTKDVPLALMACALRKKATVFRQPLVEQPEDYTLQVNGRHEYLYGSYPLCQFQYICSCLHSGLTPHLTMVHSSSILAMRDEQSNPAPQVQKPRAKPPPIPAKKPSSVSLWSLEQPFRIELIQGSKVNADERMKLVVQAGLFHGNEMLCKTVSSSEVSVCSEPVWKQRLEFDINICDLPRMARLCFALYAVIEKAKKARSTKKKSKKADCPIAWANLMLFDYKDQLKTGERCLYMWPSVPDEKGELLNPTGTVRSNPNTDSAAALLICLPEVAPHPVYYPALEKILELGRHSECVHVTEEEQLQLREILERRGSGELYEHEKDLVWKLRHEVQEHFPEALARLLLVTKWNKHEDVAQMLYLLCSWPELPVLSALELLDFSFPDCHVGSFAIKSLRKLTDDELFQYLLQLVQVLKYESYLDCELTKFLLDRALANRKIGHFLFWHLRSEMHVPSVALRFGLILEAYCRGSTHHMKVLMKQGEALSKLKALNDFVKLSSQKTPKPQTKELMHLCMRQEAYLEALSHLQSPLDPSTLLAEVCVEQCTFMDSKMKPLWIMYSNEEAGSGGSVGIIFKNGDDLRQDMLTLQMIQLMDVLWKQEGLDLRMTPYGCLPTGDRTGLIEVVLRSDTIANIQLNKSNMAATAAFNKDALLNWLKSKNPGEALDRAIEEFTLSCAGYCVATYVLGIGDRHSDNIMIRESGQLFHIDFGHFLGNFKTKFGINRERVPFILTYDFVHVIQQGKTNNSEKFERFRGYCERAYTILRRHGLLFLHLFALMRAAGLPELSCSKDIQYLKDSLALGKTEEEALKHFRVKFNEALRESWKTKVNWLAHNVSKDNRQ
Target sequence in this assay (P27986 461-568 partner): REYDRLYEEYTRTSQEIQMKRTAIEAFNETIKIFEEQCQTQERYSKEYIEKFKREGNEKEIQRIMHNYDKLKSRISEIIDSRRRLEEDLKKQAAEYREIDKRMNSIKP

[5] = Microsomal clearance assay (M); settings: intrinsic clearance in rat liver microsomes
Method: The experiments were performed in 96-well glass plates at 37° C. on an automated Tecan EVO platform. Test compounds at a concentration of 10 mM in pure DMSO were diluted 1:1000 in water to 10 μM. […] Reactions were initiated by the addition of 150 μL of a cofactor solution containing 2 mM NADPH.

[6] = system: IL-8-induced neutrophil shape change in human whole blood; test: Whole blood neutrophil shape change assay (L); assay type: cell-based; settings: Homo sapiens, Neutrophil, IL-8, human whole blood, read-out: Assay L WBSC IC50
PI 3-kinase gamma [7] = target: T4, PI 3-kinase gamma (Homo sapiens, UniProt P48736); test: TR-FRET Adapta assay, assay E; assay type: biochemical; settings: read-out: Assay E PI3Kγ IC50
Method: TR-FRET Adapta Assay for PI 3-Kinase Gamma (E), PI 3-Kinase Delta (F)
The TR-FRET Adapta™ Universal Kinase Assay Kit was purchased from Invitrogen Corporation (Carlsbad/CA, USA) (Cat. No. PV5099).
PIK3CD substrate phosphatidylinositol (PI) was obtained from Invitrogen (vesicules consisting of 2 mM phosphatidylinositol (PI) in 50 mM HEPES pH7.5; Cat. No. PV5371). PIK3CG substrate phosphatidylinositol-4,5-bisphosphate (PIP(4,5)2 was obtained from Invitrogen (PIP2:PS large unilamellar vesicules consisting of 1 mM PIP2: 19 mM PS in 50 mM HEPES pH7.5, 3 mM MgCl2, 1 mM EGTA; Cat. No. PV5100).
Time-Resolved Fluorescence Resonance Energy Transfer (TR-FRET) is a technology based on energy transfer between two adjacent dyes, from an excited electron in one dye (the donor) to an electron of an adjacent dye (the acceptor) through resonance, then released as a photon. This energy transfer is detected by an increase in the fluorescence emission of the acceptor, and a decrease in the fluorescence emission of the donor. TR-FRET assays for protein kinases use a long-lifetime lanthanide Terbium or Europium chelates as the donor species which overcome interference from compound autofluorescence or light scatter from precipitated compounds, by introducing a delay after excitation by a flashlamp excitation source. Results are often expressed as a ratio of the intensities of the acceptor and donor fluorophores. The ratiometric nature of such a value corrects for differences in assay volumes between wells, as well as corrects for quenching effects due to colored compounds. The Adapta™ assay can be divided into two phases: a kinase reaction phase and an ADP detection phase. In the kinase reaction phase, all kinase reaction components are added to the well and the reaction is allowed to incubate for a set period of time specific for each kinase. […] In the presence of an inhibitor, the amount of ADP formed by the kinase reaction is reduced, and the resulting intact antibody-tracer interaction maintains a high TR-FRET signal.
50 nL of compound dilutions were dispensed onto white 384-well small volume polystyrene plate. Then 5 μL of either PI 3-kinase gamma or PI 3-kinase delta and lipid substrate (PI or PIP2:PS) followed by 5 μL of ATP (final assay volume 10 μL) are incubated at RT. The standard reaction buffer for the Adapta™ TR-FRET assay contained 10 mM Tris-HCl pH 7.5, 3 mM MgCl2, 50 mM NaCl, 1 mM DTT, 0.05% CHAPS 3-[(3-cholamidopropyl)dimethylammonio]-1-propanesulfonate).
Data are analyzed using Excel fit software or Graphpad Prism. IC50 values were derived by fitting a sigmoidal dose-response curve to a plot of assay readout over inhibitor concentration. All fits were performed with the program XLfit4 (ID Business Solutions, Guildford, UK). […] All fits were performed with the program XLfit4 (ID Business Solutions, Guildford, UK).

PI 3-kinase delta [8] = target: T3, PI 3-kinase delta; test: Cellular assay J1, p-Akt (S473) in Rat-1 cells, Surefire format; assay type: cell-based; settings: non-asterisked data: version J1 (Surefire format), Rat-1 cells; read-out: Assay J PI3Kδ IC50
Target sequence in this assay (O00329 whole entry): as the sequence (O00329 whole entry) above
Target sequence in this assay (Q63787 whole entry partner): as the sequence (Q63787 whole entry partner) above

PI 3-kinase gamma [9] = target: T4, PI 3-kinase gamma; test: Cellular U937 AKT assay K1 (MSD); assay type: cell-based; settings: U937 cells, K1 format; read-out: Assay K1 PI3Kγ IC50
mTOR = mTOR (Homo sapiens, UniProt P42345); test: Lanthascreen kinase binding assay, assay G; settings: read-out: Assay G mTOR IC50
Method: Lanthascreen™ Kinase Binding Assay for mTOR (G)
Binding of an inhibitor to the kinase competes for binding with the tracer, resulting in a loss of FRET.
50 nL of compound dilutions were dispensed onto white 384-well small volume polystyrene plate.

Vps34 = Vps34 (Homo sapiens, UniProt Q8NEB9); test: Kinase Glo Luminescent Kinase Assay (Kglo), assay C; assay type: biochemical; settings: read-out: Assay C VPS34 IC50
PI 3-kinase beta [10] = target: T2, PI 3-kinase beta; test: Kinase Glo Luminescent Kinase Assay (Kglo), assay B; assay type: biochemical; settings: read-out: Assay B PI3Kβ IC50

T4 sequence (P48736 whole entry): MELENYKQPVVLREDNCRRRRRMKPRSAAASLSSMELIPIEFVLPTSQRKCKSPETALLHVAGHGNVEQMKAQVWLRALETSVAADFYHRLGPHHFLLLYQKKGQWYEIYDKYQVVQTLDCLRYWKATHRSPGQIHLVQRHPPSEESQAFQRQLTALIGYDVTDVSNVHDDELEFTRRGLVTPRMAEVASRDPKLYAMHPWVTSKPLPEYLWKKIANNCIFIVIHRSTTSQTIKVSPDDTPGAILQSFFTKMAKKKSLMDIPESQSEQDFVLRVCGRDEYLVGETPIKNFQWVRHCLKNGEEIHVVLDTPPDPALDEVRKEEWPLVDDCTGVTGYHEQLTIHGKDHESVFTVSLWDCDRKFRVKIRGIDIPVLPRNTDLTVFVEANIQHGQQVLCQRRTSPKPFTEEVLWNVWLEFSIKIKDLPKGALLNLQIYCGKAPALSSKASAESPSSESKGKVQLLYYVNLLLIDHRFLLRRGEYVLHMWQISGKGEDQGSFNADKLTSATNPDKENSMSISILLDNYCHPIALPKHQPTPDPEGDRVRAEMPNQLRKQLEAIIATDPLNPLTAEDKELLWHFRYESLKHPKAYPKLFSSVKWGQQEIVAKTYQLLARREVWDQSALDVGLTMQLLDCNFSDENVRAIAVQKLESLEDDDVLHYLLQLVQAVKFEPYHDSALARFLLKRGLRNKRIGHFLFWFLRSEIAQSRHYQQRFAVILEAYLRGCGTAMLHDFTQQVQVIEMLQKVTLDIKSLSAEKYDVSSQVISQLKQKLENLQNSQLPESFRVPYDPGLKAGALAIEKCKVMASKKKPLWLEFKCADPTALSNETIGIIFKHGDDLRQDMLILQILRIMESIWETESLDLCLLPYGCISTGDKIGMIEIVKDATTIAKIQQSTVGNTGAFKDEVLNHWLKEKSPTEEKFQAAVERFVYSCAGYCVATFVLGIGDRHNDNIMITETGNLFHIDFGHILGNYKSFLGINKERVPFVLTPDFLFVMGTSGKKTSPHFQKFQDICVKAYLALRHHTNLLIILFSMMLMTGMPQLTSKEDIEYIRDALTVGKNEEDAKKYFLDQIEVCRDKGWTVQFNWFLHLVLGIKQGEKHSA
Chain of PI 4-kinase beta (Q9UBF8 whole entry): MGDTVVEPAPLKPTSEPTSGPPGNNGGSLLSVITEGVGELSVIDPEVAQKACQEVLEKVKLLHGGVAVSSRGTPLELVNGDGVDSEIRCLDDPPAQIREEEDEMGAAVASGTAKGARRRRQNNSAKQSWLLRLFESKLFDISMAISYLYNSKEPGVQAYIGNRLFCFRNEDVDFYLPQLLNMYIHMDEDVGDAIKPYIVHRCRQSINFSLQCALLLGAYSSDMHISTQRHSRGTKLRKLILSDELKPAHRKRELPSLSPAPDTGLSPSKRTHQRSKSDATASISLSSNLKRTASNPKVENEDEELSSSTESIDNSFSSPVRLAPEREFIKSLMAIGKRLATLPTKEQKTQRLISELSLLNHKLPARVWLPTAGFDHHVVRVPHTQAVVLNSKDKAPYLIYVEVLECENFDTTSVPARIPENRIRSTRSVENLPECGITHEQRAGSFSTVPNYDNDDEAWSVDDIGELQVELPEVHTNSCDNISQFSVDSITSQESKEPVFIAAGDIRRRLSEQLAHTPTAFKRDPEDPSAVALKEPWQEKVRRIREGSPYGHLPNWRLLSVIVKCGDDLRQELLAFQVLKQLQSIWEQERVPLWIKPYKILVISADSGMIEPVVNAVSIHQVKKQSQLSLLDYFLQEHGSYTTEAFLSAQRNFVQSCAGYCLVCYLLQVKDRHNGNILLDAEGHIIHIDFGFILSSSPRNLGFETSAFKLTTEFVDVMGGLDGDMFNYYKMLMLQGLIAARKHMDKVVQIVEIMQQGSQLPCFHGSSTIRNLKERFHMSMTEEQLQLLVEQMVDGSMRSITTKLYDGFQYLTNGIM

Structure (SMILES) | IC50 (PI 3-kinase alpha [1]) [nM] | IC50 (PI 3-kinase alpha [2]) [nM] | IC50 (PI 4-kinase beta) [µM] | IC50 (PI 3-kinase beta [3]) [µM] | IC50 (PI 3-kinase delta [4]; read-out: Assay F PI3Kδ IC50) [nM] | Assay M RLM CI(int) [5] [µL/min/mg] | IC50 [6] [nM] | IC50 (PI 3-kinase gamma [7]) [nM] | IC50 (PI 3-kinase delta [8]) [nM] | IC50 (PI 3-kinase gamma [9]) [nM] | IC50 (mTOR) [µM] | IC50 (Vps34) [µM] | IC50 (PI 3-kinase beta [10]) [µM] | IC50 (PI 3-kinase delta [4]) [nM]
CCc1nnc(-c2nc(-c3cc(S(=O)(=O)N[C@H]4CC[C@H](O)CC4)ccc3C)cnc2N)o1 [Example 138, Trans-3-(5-Amino-6-(5-ethyl-1,3,4-oxadiazol-2-yl)pyrazin-2-yl)-N-((1r,4r)-4-hydroxycyclohexyl)-4-methylbenzenesulfonamide] | 2700 | 8800 | 8.54 | > 10 | 860 | 31 | 4830 | 4 | 3550 | 260 | > 9.1 | > 9.1 | > 9.1 | 
Cc1cc(-c2nc(-c3cc(S(=O)(=O)N[C@H]4CC[C@H](O)CC4)ccc3C)cnc2N)on1 [Example 4, Trans-3-[5-Amino-6-(3-methyl-isoxazol-5-yl)-pyrazin-2-yl]-N-(4-hydroxy-cyclohexyl)-4-methyl-benzenesulfonamide] | 510 | 2550 | 3.7 | 4.46 | 300 | 27 | 675 | 26 | 910 | 38 | 6.51 | > 9.1 | 3.24 | 
Cc1ccc(S(=O)(=O)NC[C@H]2CCOC2)cc1-c1cnc(N)c(-c2cn(C)nc2C)n1 [Example 16, 3-[5-Amino-6-(1,3-dimethyl-1H-pyrazol-4-yl)-pyrazin-2-yl]-4-methyl-N—[(R)-1-(tetrahydrofuran-3-yl)methyl]-benzenesulfonamide] | 140 | 900 | 6.4 | 1.86 | 250 | 47 | 154 | 9 | 620 | 43 | 5.3 | > 10 | 1.02 | 
Cc1cc(-c2nc(-c3cc(S(=O)(=O)N[C@H]4CC[C@H](O)CC4)ccc3C)cnc2N)ccn1 [Example 135, 3-(5-Amino-6-(2-methylpyridin-4-yl)pyrazin-2-yl)-N-((1r,4r)-4-hydroxycyclohexyl)-4-methylbenzenesulfonamide] | 180 | 7840 | 4.16 | 8.75 |  | 30 | 359 | 51 | 9390 | 63 | 4.37 | > 9.55 | 5.22 | 1700
Cc1ccc(S(=O)(=O)NCC2(CO)COC2)cc1-c1cnc(N)c(-n2cncn2)n1 [Example 35, 3-(5-Amino-6-[1,2,4]triazol-1-yl-pyrazin-2-yl)-N-(3-hydroxymethyl-oxetan-3-ylmethyl)-4-methyl-benzenesulfonamide] | 630 | > 10000 | 3.7 | > 10 | 990 | 25 | 669 | 25 | > 10000 | 418 | 5.6 | > 10 | 1.9 | 
Cc1ccc(S(=O)(=O)NC2CCC(F)(F)CC2)cc1-c1cnc(N)c(-c2cnn(C)c2)n1 [Example 54, 3-(5-Amino-6-(1-methyl-1H-pyrazol-4-yl)pyrazin-2-yl)-N-(4,4-difluorocyclohexyl)-4-methylbenzenesulfonamide] | 190 | 1690 | > 9.1 | 7.41 | 110 | 141 | 2010 | 17 | 2030 | 140 | 4.81 | > 9.1 | 0.77 | 
Cc1ccc(S(=O)(=O)N[C@H]2CC[C@H](O)CC2)cc1-c1cnc(N)c(-c2nc(C3CC3)no2)n1 [Example 24, Trans-3-[5-Amino-6-(3-cyclopropyl-[1,2,4]oxadiazol-5-yl)-pyrazin-2-yl]-N-(4-hydroxy-cyclohexyl)-4-methyl-benzene sulfonamide] | 200 | 1060 | > 9.1 | 6.25 | 60 | 43 | 561 | 7 | 660 | 53 | 7.91 | > 9.1 | 6.06 | 
CCn1cc(-c2nc(-c3cc(S(=O)(=O)NCCC(C)(C)O)ccc3C)cnc2N)cn1 [Example 119.34] | 180 | 2270 | 4.25 | 7.42 | 220 | 49 | 1490 | 13 | 1270 | 41 | 6.59 | > 9.1 | 3.51 | 
Cc1ccc(S(=O)(=O)NCCC(C)(C)O)cc1-c1cnc(N)c(-c2cnn(C(C)C)c2)n1 [Example 119.31] | 160 | 2830 | 3.74 | 6.99 | 110 | 79 | 1660 | 7 | 1240 | 46 | 2.23 | > 9.1 | 7.85 | 
Cc1cc(-c2nc(-c3cc(S(=O)(=O)NCC4(O)COC4)ccc3C)cnc2N)ccn1 [Example 129.32, 3-(5-amino-6-(2-methylpyridin-4-yl)pyrazin-2-yl)-N-((3-hydroxyoxetan-3-yl)methyl)-4-methylbenzenesulfonamide] | 2000 | > 10000 | > 9.1 | > 10 | 1800 | 18 | 2000 | 39 | > 10000 | 800 | > 9.1 | > 9.1 | 7 | 

The remaining compounds from weak to strong by IC50 (PI 3-kinase alpha [1]), led by results:

IC50 (PI 3-kinase alpha [1]) [nM] | IC50 (PI 3-kinase alpha [2]) [nM] | IC50 (PI 4-kinase beta) [µM] | IC50 (PI 3-kinase beta [3]) [µM] | IC50 (PI 3-kinase delta [4]; read-out: Assay F PI3Kδ IC50) [nM] | Assay M RLM CI(int) [5] [µL/min/mg] | IC50 [6] [nM] | IC50 (PI 3-kinase gamma [7]) [nM] | IC50 (PI 3-kinase delta [8]) [nM] | IC50 (PI 3-kinase gamma [9]) [nM] | IC50 (mTOR) [µM] | IC50 (Vps34) [µM] | IC50 (PI 3-kinase beta [10]) [µM] | IC50 (PI 3-kinase delta [4]) [nM] | Structure (SMILES)
320 | 2980 | 5.64 | 3.53 | 480 | 38 | 1110 | 39 | 2210 | 117 | 8.64 | 8.99 | 2.35 |  | Cc1cc(F)c(S(=O)(=O)NCCC(C)(C)O)cc1-c1cnc(N)c(-c2cnn(C)c2)n1 [Example 115, 5-(5-Amino-6-(1-methyl-1H-pyrazol-4-yl)pyrazin-2-yl)-2-fluoro-N-(3-hydroxy-3-methylbutyl)-4-methylbenzenesulfonamide]
310 | 1100 | 5.47 | 2.03 | 70 | 223 | 683 | 3 | 760 | 54 | > 9.1 | > 9.1 | 6.38 |  | Cc1ccc(S(=O)(=O)NCCC(C)(C)O)cc1-c1cnc(N)c(-n2cnc(C3CC3)n2)n1 [Example 26, 3-[5-Amino-6-(3-cyclopropyl-[1,2,4]triazol-1-yl)-pyrazin-2-yl]-N-(3-hydroxy-3-methyl-butyl)-4-methyl-benzenesulfonamide]
210 | > 10000 | 6.65 | > 10 | 70 | 60 | 562 | 47 | 1020 | 58 | 7.4 | > 10 | 0.87 |  | CCN1CCC[C@@H]1CNS(=O)(=O)c1ccc(C)c(-c2cnc(N)c(-c3cn(C)nc3C)n2)c1 [Example 27, 3-[5-Amino-6-(1,3-dimethyl-1H-pyrazol-4-yl)-pyrazin-2-yl]-N—((R)-1-ethyl-pyrrolidin-2-ylmethyl)-4-methyl-benzenesulfonamide hydrochloride]
140 | 2570 | 3.58 | 6.91 | 130 | 78 | 157 | 10 | 3520 | 57 | 5.89 | > 9.1 | 2.62 |  | Cc1ccc(S(=O)(=O)N[C@H]2CC[C@H](O)CC2)cc1-c1cnc(N)c(-c2ccncc2)n1 [Example 11, Trans-3-(5-Amino-6-(pyridin-4-yl)pyrazin-2-yl)-N-(4-hydroxycyclohexyl)-4-methylbenzenesulfonamide]
